Measurements as given in publication PMC3530479, “Bestrophin-Encoded Ca^2+-Activated Cl^− Channels Underlie a Current with Properties Similar to the Native Current in the Moth Spodoptera littoralis Olfactory Receptor Neurons” (PLoS ONE, 2012).

Target: T1, SlitBest1b (Spodoptera littoralis, UniProt I6YK90)
T1 construct: full open reading frame without stop codon in pCINeo/IRES-GFP, expressed transiently in CHO-K1 cells
T1 sequence (I6YK90 1-707): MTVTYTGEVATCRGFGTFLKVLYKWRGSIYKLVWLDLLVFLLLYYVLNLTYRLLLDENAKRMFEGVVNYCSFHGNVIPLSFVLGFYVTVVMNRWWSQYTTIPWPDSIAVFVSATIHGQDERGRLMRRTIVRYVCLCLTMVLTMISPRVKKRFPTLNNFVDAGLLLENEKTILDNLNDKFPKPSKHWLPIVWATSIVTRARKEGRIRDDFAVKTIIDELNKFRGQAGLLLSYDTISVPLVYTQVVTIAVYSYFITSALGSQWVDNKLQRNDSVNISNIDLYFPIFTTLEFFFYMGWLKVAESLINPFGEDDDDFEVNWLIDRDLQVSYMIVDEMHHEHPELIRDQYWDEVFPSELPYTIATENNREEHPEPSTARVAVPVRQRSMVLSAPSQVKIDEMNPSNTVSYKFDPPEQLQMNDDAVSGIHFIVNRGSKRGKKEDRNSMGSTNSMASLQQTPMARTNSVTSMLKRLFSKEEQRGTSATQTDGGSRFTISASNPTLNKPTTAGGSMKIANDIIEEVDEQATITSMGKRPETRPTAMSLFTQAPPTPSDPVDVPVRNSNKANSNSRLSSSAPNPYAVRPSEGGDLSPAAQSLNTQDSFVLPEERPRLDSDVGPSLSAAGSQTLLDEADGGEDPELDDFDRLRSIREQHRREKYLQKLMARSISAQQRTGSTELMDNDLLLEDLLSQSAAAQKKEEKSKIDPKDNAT
Experiment: whole-cell patch clamp, steady-state Ca2+-activated Cl- current in transfected CHO-K1 cells
Format: cell-based
Source text: whole-cell patch clamp, steady-state Ca2+-activated Cl- current in transfected CHO-K1 cells on SlitBest1b

| SMILES | inhibition at 100 µM [%] | inhibition at 300 µM [%] |
| --- | --- | --- |
| O=C(O)c1cc([N+](=O)[O-])ccc1NCCCc1ccccc1 [NPPB, 5-nitro-2-(3-phenylpropylamino) benzoic acid] | 101 ± 7.6 | – |
| O=C(O)c1cccnc1Nc1cccc(C(F)(F)F)c1 [niflumic acid] | – | 65.1 ± 8.9 |
| O=C(O)c1ccccc1Nc1cccc(C(F)(F)F)c1 [flufenamic acid] | 78.7 ± 8.2 | – |
